Assay [1] deals with hGH-RH(1–29)NH2 induced GH release. As to the kind of experiment: Inhibition of GH release in superfused rat pituitary system. The class given is cell-based. The note with it: for Inhibition of GH release (%) 30 min / Inhibition of GH release (%) 60 min / Inhibition of GH release (%) 90 min / Inhibition of GH release (%) 120 min / Inhibition of GH release (%) 0 min: antagonist 30 nM; for Inhibition of GH release (%) 30 min: 1 nM hGH-RH(1–29)NH2 30 min later; for Inhibition of GH release (%) 60 min: 1 nM hGH-RH(1–29)NH2 60 min later; for Inhibition of GH release (%) 90 min: 1 nM hGH-RH(1–29)NH2 90 min later; for Inhibition of GH release (%) 120 min: 1 nM hGH-RH(1–29)NH2 120 min later; for Inhibition of GH release (%) 0 min: 1 nM hGH-RH(1–29)NH2 at 0 min. In short, it runs like this: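 Superfused rat pituitary cells preincubated 9 min with peptide, then challenged for 3 min with 1 nM hGH-RH(1–29)NH2 at 0, 30, 60, 90 and 120 min. Rat GH measured by double-antibody RIA; net integral GH responses expressed as percent of the original 1 nM GH-RH-induced response.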

The test system of assay [2] is MDA-MB-468 human breast cancer xenografts. Briefly: MDA-MB-468 human breast cancer xenografts in nude mice. The class given is in vivo. The note with it: 20 μg daily s.c., 5 weeks. As for the experimental part: Nude mice bearing MDA-MB-468 hormone-independent human breast cancer xenografts were divided into groups of 10 animals each. The treated groups received single daily s.c. injections of 20 μg of GH-RH antagonists. One group was treated with Peptide 1, a second group was treated with MZ-5-156 for comparison. The control group was injected with the vehicle solvent. The treatment was continued for 5 weeks. Tumors were measured once a week and tumor volume was calculated. The mice were sacrificed at the end of experiment and tumor weights were measured.

For assay [3], the system named is HT-29 human colon cancers. As to the kind of experiment: HT-29 human colon cancer xenografts in nude mice. The class given is in vivo. The conditions noted are these: 20 μg daily sc., 6 weeks. The procedure: HT-29 human colon cancers were transplanted sc. into male nude mice. 19 days after transplantation, the mice were divided into groups of 10 animals each, and the treatment was started. The mice received single daily injections of various GH-RH antagonists sc. at 20 μg dose per day for 6 weeks. Tumors were measured regularly, and tumor volume was calculated. The mice were sacrificed at the end of experiment and tumor weights were measured.

In assay [4] the test system is U87MG human glioblastoma xenografts. As to the kind of experiment: U87MG human glioblastoma xenografts in nude mice. The assay is classed as in vivo. The note with it: 20 μg daily s.c., 28 days. As for the experimental part:
Mice were implanted s.c. with U87MG glioblastomas and when tumors reached a volume of approx. 70 mm^3 the mice were randomly divided into 2 experimental groups. One group was treated with Peptide 1 in single daily s.c. injections of 20 μg for 28 days, while the other group served as control.

Assay [5] deals with PC-3 human prostate cancer xenografts. Briefly: PC-3 human prostate cancer xenografts in nude mice. The class given is in vivo. The note with it: 20 μg daily s.c., 21 days. The procedure:
Male nude mice were implanted s.c. with 3 mm^3 pieces of PC-3 human hormone-independent prostate cancer tissue into both flanks. When tumors reached a volume of approx. 40–50 mm^3 the mice were divided into 3 experimental groups. The first and second groups were treated with peptides Peptide 3 and MZ-5-156, respectively, in single daily s.c. injections of 20 μg for 21 days, while the third group served as control. Tumor volumes were measured at weekly intervals, tumor weights were measured at the end of experiment.

Marks after values point to notes of the source that are not given here. Square brackets hold non-standard residues; d marks the D form. Peptide text beside a SMILES is read from it. * marks the point of attachment. Phe(4-Cl) = N[C@@H](Cc1ccc(Cl)cc1)C(=O)O; hArg = N=C(N)NCCCC[C@H](N)C(=O)O; Nle = CCCC[C@H](N)C(=O)O; Abu = CC[C@H](N)C(=O)O; PhAc = O=C(Cc1ccccc1)*

Consider `CCCC[C@H](NC(=O)[C@@H](NC(=O)[C@H](CC(=O)O)NC(=O)[C@H](CCC(N)=O)NC(=O)[C@H](CC(C)C)NC(=O)[C@H](CC(C)C)NC(=O)[C@H](CCCCN)NC(=O)[C@H](CCCNC(=N)N)NC(=O)[C@H](C)NC(=O)[C@H](CO)NC(=O)[C@H](CC(C)C)NC(=O)[C@H](CCC(N)=O)NC(=O)[C@H](CC)NC(=O)[C@H](CC(C)C)NC(=O)[C@@H](NC(=O)[C@H](CCCCN)NC(=O)[C@H](CCCNC(=N)N)NC(=O)[C@H](Cc1ccc(O)cc1)NC(=O)[C@H](CCCNC(=N)N)NC(=O)[C@H](CC(N)=O)NC(=O)[C@@H](NC(=O)[C@H](Cc1ccc(Cl)cc1)NC(=O)[C@@H](NC(=O)[C@H](C)NC(=O)[C@H](CC(=O)O)NC(=O)[C@@H](CCCNC(=N)N)NC(=O)[C@H](Cc1ccc(O)cc1)NC(=O)Cc1ccccc1)[C@@H](C)CC)[C@@H](C)O)C(C)C)[C@@H](C)CC)C(=O)N[C@H](CCCNC(=N)N)C(=O)N[C@@H](CCCCNC(=N)N)C(N)=O` [Peptide 1, [PhAc^0, D-Arg^2, Phe(pCl)^6, Arg^9, Abu^15, Nle^27, D-Arg^28, Har^29]hGH-RH(1–29)NH2] (PhAc-Y[dR]DAI[Phe(4-Cl)]TNRYRKVL[Abu]QLSARKLLQDI[Nle][dR][hArg]-NH2), for which, in assay [1], the “Inhibition of GH release (%) 30 min” value is listed as 100%, the “Inhibition of GH release (%) 60 min” value stood at 100%, the “Inhibition of GH release (%) 90 min” value came out at 100% and the “Inhibition of GH release (%) 120 min” value worked out at 94%. Moreover, the “Inhibition of GH release (%) 0 min” value in assay [1] is 100%. In assay [1] (standard test conditions), the “Duration of complete inhibition of the GH-RH induced GH release” value was found to be 90 min. Moreover, in assay [2] (nude mice), the “Final tumor volume (mm^3)” value is on record as 82.4 ± 29.1** mm^3 and the “Tumor weight” value was determined as 64.0 ± 28.7 mg. Also, the “Number of regressed tumors” value in assay [2] (groups of 10) is listed as 4. In addition, the “Inhibitory effect on HT-29 human colon cancers (in words)” value in assay [3] is recorded as “equally strong inhibitory effect”. In addition, in assay [3] (nude mice), the “Final tumor volume (mm^3)” value is 890 ± 322* mm^3 and the “Tumor weight” value came to 1354 ± 480 mg. Besides, in assay [4], the “Final tumor volume (mm^3)” value is recorded as 817 ± 323** mm^3 and the “Tumor weight” value is listed as 1.4 ± 0.7 g.
As for `CCCC[C@H](NC(=O)[C@@H](NC(=O)[C@H](CC(=O)O)NC(=O)[C@H](CCC(N)=O)NC(=O)[C@H](CC(C)C)NC(=O)[C@H](CC(C)C)NC(=O)[C@H](CCCCN)NC(=O)[C@H](CCCNC(=N)N)NC(=O)[C@H](C)NC(=O)[C@H](CO)NC(=O)[C@H](CC(C)C)NC(=O)[C@H](CCC(N)=O)NC(=O)[C@H](CC)NC(=O)[C@H](CC(C)C)NC(=O)[C@@H](NC(=O)[C@H](CCCCN)NC(=O)[C@H](CCCNC(=N)N)NC(=O)[C@H](Cc1ccc(OC)cc1)NC(=O)[C@H](CCCCNC(=N)N)NC(=O)[C@H](CC(N)=O)NC(=O)[C@@H](NC(=O)[C@H](Cc1ccc(Cl)cc1)NC(=O)[C@@H](NC(=O)[C@H](C)NC(=O)[C@H](CC(=O)O)NC(=O)[C@@H](CCCNC(=N)N)NC(=O)[C@H](Cc1ccc(O)cc1)NC(=O)Cc1ccccc1)[C@@H](C)CC)[C@@H](C)O)C(C)C)[C@@H](C)CC)C(=O)N[C@H](CCCNC(=N)N)C(=O)N[C@@H](CCCCNC(=N)N)C(N)=O` [Peptide 3, [PhAc^0, D-Arg^2, Phe(pCl)^6, Har^9, Tyr(Me)^10, Abu^15, Nle^27, D-Arg^28, Har^29]hGH-RH(1–29)NH2] (PhAc-Y[dR]DAI[Phe(4-Cl)]TN[hArg]Y(Me)RKVL[Abu]QLSARKLLQDI[Nle][dR][hArg]-NH2), in assay [1], the “Inhibition of GH release (%) 30 min” value came to 98%, the “Inhibition of GH release (%) 60 min” value is recorded as 91%, the “Inhibition of GH release (%) 90 min” value is reported as 92% and the “Inhibition of GH release (%) 120 min” value is listed as 87%. The “Inhibition of GH release (%) 0 min” value in assay [1] worked out at 85%. In assay [5], the “Inhibition in tumor volume” value was 65% and the “Inhibition in tumor weight” value is 62%. For the same compound, in assay [5] (nude mice), the “Final tumor volume (mm^3)” value is 107.9 ± 12.5* mm^3 and the “Tumor weight” value is recorded as 73.7 ± 11.9 mg.

The values above are taken from patent publication US7026281B1, “Antagonistic analogs of GH-RH inhibiting IGF-I and -II” (The Administrators of the Tulane Educational Fund, priority 1998, dated 2006).
